The values that follow come from patent US20080200454A1, “CARBON-LINKED TETRAHYDRO-PYRAZOLO-PYRIDINE MODULATORS OF CATHEPSIN S” (priority 2007, published 2008).

Recombinant human cathepsin S (CatS), sequence (P25774 115-331): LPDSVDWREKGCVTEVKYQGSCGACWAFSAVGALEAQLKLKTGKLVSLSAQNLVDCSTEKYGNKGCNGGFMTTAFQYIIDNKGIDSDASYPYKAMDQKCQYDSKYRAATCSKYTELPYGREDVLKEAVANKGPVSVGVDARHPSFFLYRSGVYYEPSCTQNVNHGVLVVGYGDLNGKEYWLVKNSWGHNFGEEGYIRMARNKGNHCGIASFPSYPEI

One test addresses Recombinant human cathepsin S (CatS) (Homo sapiens, UniProt P25774). Nature of the test: Recombinant human cathepsin S (CatS) inhibition assay, fluorogenic substrate Z-Valine-Valine-Arginine-AMC.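 Further: Baculovirus-expressed CatS in pH 5.0 sodium acetate buffer with DTT and NaCl, fluorescence read each minute over 20 min, inhibition derived from rate slope.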
Settings: not given
On to `NC(=O)C(=O)N1CCc2c(c(-c3ccc(Cl)c(C#Cc4ccc(Cl)c(C(=O)NC[C@@H]5CCNC5)c4)c3)nn2CCCN2CCSCC2)C1` [Example 578, 5-[(5-{5-[Amino(oxo)acetyl]-1-(3-thiomorpholin-4-ylpropyl)-4,5,6,7-tetrahydro-1H-pyrazolo[4,3-c]pyridin-3-yl}-2-chlorophenyl)ethynyl]-2-chloro-N-[(3R)-pyrrolidin-3-ylmethyl]benzamide], for which the IC50 turned out to be 20 nM. Still for that read-out and setting: for `NC(=O)C(=O)N1CCc2c(c(-c3ccc(Cl)c(C#Cc4ccc(Cl)c(C(=O)NCC5CCCNC5)c4)c3)nn2CCCN2CCSCC2)C1` (stereo not shown) [Example 579, 5-[(5-{5-[Amino(oxo)acetyl]-1-(3-thiomorpholin-4-ylpropyl)-4,5,6,7-tetrahydro-1H-pyrazolo[4,3-c]pyridin-3-yl}-2-chlorophenyl)ethynyl]-2-chloro-N-(piperidin-3-ylmethyl)benzamide] the value was 20 nM; for `NC(=O)C(=O)N1CCc2c(c(-c3ccc(Cl)c(C#Cc4ccc(Cl)c(C(=O)NCC5CNCCO5)c4)c3)nn2CCCN2CCSCC2)C1` (stereo not shown) [Example 580, 5-[(5-{5-[Amino(oxo)acetyl]-1-(3-thiomorpholin-4-ylpropyl)-4,5,6,7-tetrahydro-1H-pyrazolo[4,3-c]pyridin-3-yl}-2-chlorophenyl)ethynyl]-2-chloro-N-(morpholin-2-ylmethyl)benzamide], 30 nM; for `NC(=O)C(=O)N1CCc2c(c(-c3ccc(Cl)c(C#Cc4ccc(Cl)c(C(=O)NCCN5CCOCC5)c4)c3)nn2CCCN2CCSCC2)C1` [Example 581, 5-[(5-{5-[Amino(oxo)acetyl]-1-(3-thiomorpholin-4-ylpropyl)-4,5,6,7-tetrahydro-1H-pyrazolo[4,3-c]pyridin-3-yl}-2-chlorophenyl)ethynyl]-2-chloro-N-(2-morpholin-4-ylethyl)benzamide], 30 nM. The same measure, in the same setting: in the case of `NC(=O)N1CCc2c(c(-c3ccc(Cl)c(C#Cc4ccc(Cl)c(C(=O)NC[C@@H]5CCNC5)c4)c3)nn2CCCN2CCSCC2)C1` [Example 582, 3-{4-Chloro-3-[(4-chloro-3-{[(3R)-pyrrolidin-3-ylmethyl]carbamoyl}phenyl)ethynyl]phenyl}-1-(3-thiomorpholin-4-ylpropyl)-1,4,6,7-tetrahydro-5H-pyrazolo[4,3-c]pyridine-5-carboxamide] it was 40 nM. The same measure, in the same setting: for `NC(=O)N1CCc2c(c(-c3ccc(Cl)c(C#Cc4ccc(Cl)c(C(=O)NCC5CCCNC5)c4)c3)nn2CCCN2CCSCC2)C1` (stereo not shown) [Example 583, 3-[4-Chloro-3-({4-chloro-3-[(piperidin-3-ylmethyl)carbamoyl]phenyl}ethynyl)phenyl]-1-(3-thiomorpholin-4-ylpropyl)-1,4,6,7-tetrahydro-5H-pyrazolo[4,3-c]pyridine-5-carboxamide] the value was 30 nM. Regarding `NC(=O)N1CCc2c(c(-c3ccc(Cl)c(C#Cc4ccc(Cl)c(C(=O)NCC5CNCCO5)c4)c3)nn2CCCN2CCSCC2)C1` (stereo not shown) [Example 584, 3-[4-Chloro-3-({4-chloro-3-[(morpholin-2-ylmethyl)carbamoyl]phenyl}ethynyl)phenyl]-1-(3-thiomorpholin-4-ylpropyl)-1,4,6,7-tetrahydro-5H-pyrazolo[4,3-c]pyridine-5-carboxamide], the IC50 was found to be 40 nM. On to `NC(=O)N1CCc2c(c(-c3ccc(Cl)c(C#Cc4ccc(Cl)c(C(=O)NCCN5CCOCC5)c4)c3)nn2CCCN2CCSCC2)C1` [Example 585, 3-[4-Chloro-3-({4-chloro-3-[(2-morpholin-4-ylethyl)carbamoyl]phenyl}ethynyl)phenyl]-1-(3-thiomorpholin-4-ylpropyl)-1,4,6,7-tetrahydro-5H-pyrazolo[4,3-c]pyridine-5-carboxamide], for which the IC50 came out at 40 nM.

As for `C[C@H]1COCCN1CCCn1nc(-c2ccc(Cl)c(C#Cc3ccc(Cl)c(C(=O)NCC4CCCNC4)c3)c2)c2c1CCN(C(=O)C(N)=O)C2` (stereo partly drawn) [Example 587, 5-{[5-(5-[Amino(oxo)acetyl]-1-{3-[(3S)-3-methylmorpholin-4-yl]propyl}-4,5,6,7-tetrahydro-1H-pyrazolo[4,3-c]pyridin-3-yl)-2-chlorophenyl]ethynyl}-2-chloro-N-(piperidin-3-ylmethyl)benzamide], the 50% inhibitory concentration (IC50) was 20 nM. In the case of `CCNCc1cc(C#Cc2cc(-c3nn(CCCN4CCCCC4)c4c3CN(C(=O)C(N)=O)CC4)ccc2Cl)ccc1Cl` [Example 592, 2-{3-[4-Chloro-3-({4-chloro-3-[(ethylamino)methyl]phenyl}ethynyl)phenyl]-1-(3-piperidin-1-ylpropyl)-1,4,6,7-tetrahydro-5H-pyrazolo[4,3-c]pyridin-5-yl}-2-oxoacetamide], the IC50 turned out to be 20 nM. For `CS(=O)(=O)N1CCc2c(c(-c3ccc(Cl)c(C#Cc4ccc(Cl)c(C(=O)NCCN5CCOCC5)c4)c3)nn2CCCN2CCCCC2)C1` [Example 593, 2-Chloro-5-({2-chloro-5-[5-(methylsulfonyl)-1-(3-piperidin-1-ylpropyl)-4,5,6,7-tetrahydro-1H-pyrazolo[4,3-c]pyridin-3-yl]phenyl}ethynyl)-N-(2-morpholin-4-ylethyl)benzamide], the IC50 amounted to 60 nM.

The same test, now with this note: CatS IC50.
As to `NC(=O)N1CCc2c(c(-c3ccc(Cl)c(C#Cc4ccc(Cl)c(C(=O)N5CCCNCC5)c4)c3)nn2CCCN2CCSCC2)C1` [Example 572, 3-(4-Chloro-3-{[4-chloro-3-(1,4-diazepan-1-ylcarbonyl)phenyl]ethynyl}phenyl)-1-(3-thiomorpholin-4-ylpropyl)-1,4,6,7-tetrahydro-5H-pyrazolo[4,3-c]pyridine-5-carboxamide], the IC50 came out at 170 nM. With `C[C@H]1COCCN1CCCn1nc(-c2ccc(Cl)c(C#Cc3ccc(Cl)c(C(=O)N4CCCC4)c3)c2)c2c1CCN(C(=O)C(N)=O)C2` [Example 573, 2-[3-(4-Chloro-3-{[4-chloro-3-(pyrrolidin-1-ylcarbonyl)phenyl]ethynyl}phenyl)-1-{3-[(3S)-3-methylmorpholin-4-yl]propyl}-1,4,6,7-tetrahydro-5H-pyrazolo[4,3-c]pyridin-5-yl]-2-oxoacetamide], the IC50 was 190 nM. For `C[C@H]1COCCN1CCCn1nc(-c2ccc(Cl)c(C#Cc3ccc(Cl)c(C(=O)N4CCNCC4)c3)c2)c2c1CCN(C(=O)C(N)=O)C2` [Example 574, 2-[3-(4-Chloro-3-{[4-chloro-3-(piperazin-1-ylcarbonyl)phenyl]ethynyl}phenyl)-1-{3-[(3S)-3-methylmorpholin-4-yl]propyl}-1,4,6,7-tetrahydro-5H-pyrazolo[4,3-c]pyridin-5-yl]-2-oxoacetamide], the half-inhibitory concentration (IC50) came to 140 nM. Take `C[C@H]1COCCN1CCCn1nc(-c2ccc(Cl)c(C#Cc3ccc(Cl)c(C(=O)N4CCCNCC4)c3)c2)c2c1CCN(C(=O)C(N)=O)C2` [Example 575, 2-[3-(4-Chloro-3-{[4-chloro-3-(1,4-diazepan-1-ylcarbonyl)phenyl]ethynyl}phenyl)-1-{3-[(3S)-3-methylmorpholin-4-yl]propyl}-1,4,6,7-tetrahydro-5H-pyrazolo[4,3-c]pyridin-5-yl]-2-oxoacetamide]: the IC50 was found to be 170 nM. `C[C@H]1COCCN1CCCn1nc(-c2ccc(Cl)c(C#Cc3ccc(Cl)c(C(=O)NCCCN(C)C(=O)OC(C)(C)C)c3)c2)c2c1CCN(C(=O)C(N)=O)C2` [Example 576, tert-Butyl (3-{[(5-{[5-(5-[amino(oxo)acetyl]-1-{3-[(3S)-3-methylmorpholin-4-yl]propyl}-4,5,6,7-tetrahydro-1H-pyrazolo[4,3-c]pyridin-3-yl)-2-chlorophenyl]ethynyl}-2-chlorophenyl)carbonyl]amino}propyl)methylcarbamate]: the IC50 amounted to 50 nM. As for `C[C@H]1COCCN1CCCn1nc(-c2ccc(Cl)c(C#Cc3ccc(Cl)c(C(=O)NCCCNC(=O)OC(C)(C)C)c3)c2)c2c1CCN(C(=O)C(N)=O)C2` [Example 577, tert-Butyl (3-{[(5-{[5-(5-[amino(oxo)acetyl]-1-{3-[(3S)-3-methylmorpholin-4-yl]propyl}-4,5,6,7-tetrahydro-1H-pyrazolo[4,3-c]pyridin-3-yl)-2-chlorophenyl]ethynyl}-2-chlorophenyl)carbonyl]amino}propyl)carbamate], the IC50 came out at 20 nM.

Take `C[C@H]1COCCN1CCCn1nc(-c2ccc(Cl)c(C#Cc3ccc(Cl)c(C(=O)NC[C@@H]4CCNC4)c3)c2)c2c1CCN(C(=O)C(N)=O)C2` [Example 586, 5-{[5-(5-[Amino(oxo)acetyl]-1-{3-[(3S)-3-methylmorpholin-4-yl]propyl}-4,5,6,7-tetrahydro-1H-pyrazolo[4,3-c]pyridin-3-yl)-2-chlorophenyl]ethynyl}-2-chloro-N-[(3R)-pyrrolidin-3-ylmethyl]benzamide]: the half-inhibitory concentration (IC50) came to 20 nM. Same read-out and setting: in the case of `C[C@H]1COCCN1CCCn1nc(-c2ccc(Cl)c(C#Cc3ccc(Cl)c(CN4CCOCC4)c3)c2)c2c1CCN(C(=O)C(N)=O)C2` [Example 588, 2-[3-(4-Chloro-3-{[4-chloro-3-(morpholin-4-ylmethyl)phenyl]ethynyl}phenyl)-1-{3-[(3S)-3-methylmorpholin-4-yl]propyl}-1,4,6,7-tetrahydro-5H-pyrazolo[4,3-c]pyridin-5-yl]-2-oxoacetamide] it was 40 nM; in that of `C[C@H]1COCCN1CCCn1nc(-c2ccc(Cl)c(C#Cc3ccc(Cl)c(CNC4CC4)c3)c2)c2c1CCN(C(=O)C(N)=O)C2` [Example 589, 2-(3-[4-Chloro-3-({4-chloro-3-[(cyclopropylamino)methyl]phenyl}ethynyl)phenyl]-1-{3-[(3S)-3-methylmorpholin-4-yl]propyl}-1,4,6,7-tetrahydro-5H-pyrazolo[4,3-c]pyridin-5-yl)-2-oxoacetamide], 30 nM; in that of `NC(=O)N1CCc2c(c(-c3ccc(Cl)c(C#Cc4ccc(Cl)c(C(=O)NCCN5CCOCC5)c4)c3)nn2CCCN2CCCCC2)C1` [Example 590, 3-[4-Chloro-3-({4-chloro-3-[(2-morpholin-4-ylethyl)carbamoyl]phenyl}ethynyl)phenyl]-1-(3-piperidin-1-ylpropyl)-1,4,6,7-tetrahydro-5H-pyrazolo[4,3-c]pyridine-5-carboxamide], 70 nM. Same read-out and setting: for `NC(=O)C(=O)N1CCc2c(c(-c3ccc(Cl)c(C#Cc4ccc(Cl)c(C(=O)NCCN5CCOCC5)c4)c3)nn2CCCN2CCCCC2)C1` [Example 591, 5-[(5-{5-[Amino(oxo)acetyl]-1-(3-piperidin-1-ylpropyl)-4,5,6,7-tetrahydro-1H-pyrazolo[4,3-c]pyridin-3-yl}-2-chlorophenyl)ethynyl]-2-chloro-N-(2-morpholin-4-ylethyl)benzamide] the value was 30 nM.

What is called IC50 is the midpoint of a concentration-inhibition curve.
